Laboratory results from patent US20190152992A1, “BENZODIOXANE DERIVATIVES AND THEIR PHARMACEUTICAL USE” (Orion Corporation, priority 2016, published 2019).
Structures can show the parent of a compound that is named as a salt.

Experiments:
human alpha2A receptors = biological target: T1, human alpha2A receptors (Homo sapiens, UniProt P08913); test: cell-based
T1 sequence (P08913 1-465): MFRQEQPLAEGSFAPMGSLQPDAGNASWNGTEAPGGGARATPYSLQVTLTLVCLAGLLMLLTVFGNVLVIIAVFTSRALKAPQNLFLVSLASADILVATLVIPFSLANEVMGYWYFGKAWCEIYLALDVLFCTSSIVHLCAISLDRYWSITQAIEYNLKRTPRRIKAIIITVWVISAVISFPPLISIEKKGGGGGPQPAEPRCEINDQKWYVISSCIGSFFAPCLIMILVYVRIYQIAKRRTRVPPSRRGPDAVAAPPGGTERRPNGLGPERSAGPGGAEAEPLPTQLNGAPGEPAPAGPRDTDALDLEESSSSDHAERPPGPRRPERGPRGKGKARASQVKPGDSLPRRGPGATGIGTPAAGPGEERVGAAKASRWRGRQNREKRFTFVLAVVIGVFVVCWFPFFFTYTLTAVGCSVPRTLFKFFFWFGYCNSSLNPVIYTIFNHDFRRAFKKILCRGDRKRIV

human alpha2C receptors = biological target: T2, human alpha2C receptors (Homo sapiens, UniProt P18825); test: Determination of alpha2C antagonistic activity in vitro (FLIPR calcium assay); settings: for Kb: Alpha 2C Adrenaline Kb, Kb calculated from IC50 with the Cheng-Prusoff equation, adrenaline as agonist, CHO cells, human alpha2C
T2 sequence (P18825 1-462): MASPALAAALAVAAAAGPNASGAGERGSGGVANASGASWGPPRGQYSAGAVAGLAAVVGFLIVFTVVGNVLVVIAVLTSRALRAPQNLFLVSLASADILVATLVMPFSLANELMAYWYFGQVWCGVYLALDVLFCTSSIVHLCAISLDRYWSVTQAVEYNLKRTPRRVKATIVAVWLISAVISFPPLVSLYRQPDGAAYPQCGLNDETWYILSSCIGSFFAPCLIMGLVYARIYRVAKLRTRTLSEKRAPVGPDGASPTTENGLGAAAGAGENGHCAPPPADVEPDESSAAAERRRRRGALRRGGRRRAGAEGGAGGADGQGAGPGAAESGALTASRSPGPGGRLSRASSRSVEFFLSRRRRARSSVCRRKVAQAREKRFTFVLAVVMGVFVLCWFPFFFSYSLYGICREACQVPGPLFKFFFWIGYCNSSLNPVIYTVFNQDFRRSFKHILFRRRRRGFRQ

Row | SMILES | IC50 (human alpha2A receptors) [nM] | Kb (human alpha2A receptors) [nM] | IC50 (human alpha2C receptors) [nM] | Kb (human alpha2C receptors) [nM]
1 | CC(C)N1C(=O)N([C@H]2CCCN(C[C@H]3COc4ccccc4O3)C2)C[C@H]1c1ccccc1 [example 6, (R)-1-((S)-1-(((S)-2,3-Dihydrobenzo[b][1,4]dioxin-2-yl)methyl)-piperidin-3-yl)-3-isopropyl-4-phenylimidazolidin-2-one] | 9870 | 443 | 672 | 67.7
2 | CCC1(c2ccccc2)C(=O)N([C@H]2CCCN(C[C@H]3COc4ccccc4O3)C2)C(=O)N1C (stereo partly drawn) [example 73, 3-((S)-1-(((S)-2,3-Dihydrobenzo[b][1,4]dioxin-2-yl)methyl)-piperidin-3-yl)-5-ethyl-1-methyl-5-phenylimidazolidine-2,4-dione] | 185 | 8 | < 0.1 | < 0.01
3 | Cc1nc2ccccc2n1[C@H]1CCCN(C[C@H]2COc3ccccc3O2)C1 [example 150, 1-((S)-1-(((S)-2,3-Dihydrobenzo[b][1,4]dioxin-2-yl)methyl)piperidin-3-yl)-2-methyl-1H-benzo[d]imidazole] | 4480 | 201 | < 0.1 | < 0.01
4 | CC1=C(c2ccccc2)C(=O)N([C@H]2CCCN(C[C@H]3COc4ccccc4O3)C2)C1 [example 42, 1-((S)-1-(((S)-2,3-Dihydrobenzo[b][1,4]dioxin-2-yl)methyl)piperidin-3-yl)-4-methyl-3-phenyl-1H-pyrrol-2(5H)-one] | > 10000 | > 449 | 331 | 33.3
5 | O=C1CN(C2CC2)C(=O)N1[C@H]1CCCN(C[C@H]2COc3ccccc3O2)C1 [example 119, 1-Cyclopropyl-3-((S)-1-(((S)-2,3-dihydrobenzo[b][1,4]dioxin-2-yl)methyl)piperidin-3-yl)imidazolidine-2,4-dione] | > 10000 | > 449 | 17.5 | 1.76
6 | O=C1c2cccc(F)c2CN1[C@H]1CCCN(C[C@H]2COc3ccccc3O2)C1 [example 57, 2-((S)-1-(((S)-2,3-Dihydrobenzo[b][1,4]dioxin-2-yl)methyl)piperidin-3-yl)-4-fluoroisoindolin-1-one hydrochloride] | > 10000 | > 449 | 1.54 | 0.15
7 | Cc1ccc2c(c1)CN([C@H]1CCCN(C[C@H]3COc4ccccc4O3)C1)C2=O [example 59, 2-((S)-1-(((S)-2,3-Dihydrobenzo[b][1,4]dioxin-2-yl)methyl)piperidin-3-yl)-5-methylisoindolin-1-one formate] | > 10000 | > 449 | < 0.01 | < 0.001
8 | CC1=CC(=O)N([C@H]2CCCN(C[C@H]3COc4ccccc4O3)C2)C1 [example 40, 1-((S)-1-(((S)-2,3-Dihydrobenzo[b][1,4]dioxin-2-yl)methyl)piperidin-3-yl)-4-methyl-1H-pyrrol-2(5H)-one] | > 10000 | > 449 | 2.32 | 0.232
9 | O=C1c2cnccc2CN1[C@H]1CCCN(C[C@H]2COc3ccccc3O2)C1 [example 11, 2-((S)-1-(((S)-2,3-Dihydrobenzo[b][1,4]dioxin-2-yl)methyl)piperidin-3-yl)-1H-pyrrolo[3,4-c]pyridin-3(2H)-one] | > 10000 | > 449 | 127 | 12.8
10 | CCN1C(=O)CC(=O)N([C@H]2CCCN(C[C@H]3COc4ccccc4O3)C2)C1=O [example 96, 1-((S)-1-(((S)-2,3-Dihydrobenzo[b][1,4]dioxin-2-yl)methyl)-piperidin-3-yl)-3-ethylpyrimidine-2,4,6(1H,3H,5H)-trione] | > 10000 | > 449 | 15.1 | 1.52
11 | CC(C)c1nc2ccc(F)cc2n1[C@H]1CCCN(C[C@H]2COc3ccccc3O2)C1 [example 85, 1-((S)-1-(((S)-2,3-Dihydrobenzo[b][1,4]dioxin-2-yl)methyl)piperidin-3-yl)-6-fluoro-2-isopropyl-1H-benzo[d]imidazole] | > 10000 | > 449 | 1260 | 127

Results, then the compound that gave them:

Row | IC50 (human alpha2A receptors) [nM] | Kb (human alpha2A receptors) [nM] | IC50 (human alpha2C receptors) [nM] | Kb (human alpha2C receptors) [nM] | SMILES
12 | > 10000 | > 449 | < 0.1 | < 0.01 | O=c1[nH]c2ccc(F)cc2n1[C@H]1CCCN(C[C@H]2COc3ccccc3O2)C1 [example 86, 1-((S)-1-(((S)-2,3-Dihydrobenzo[b][1,4]dioxin-2-yl)methyl)piperidin-3-yl)-6-fluoro-1H-benzo[d]imidazol-2(3H)-one]
13 | > 10000 | > 449 | 0.308 | 0.031 | CCCN1C(=O)C(=O)N([C@H]2CCCN(C[C@H]3COc4ccccc4O3)C2)C1=O [example 132, 1-((S)-1-(((S)-2,3-Dihydrobenzo[b][1,4]dioxin-2-yl)methyl)-piperidin-3-yl)-3-propylimidazolidine-2,4,5-trione]
14 | > 10000 | > 449 | 0.846 | 0.085 | O=C1C(=O)N([C@H]2CCCN(C[C@H]3COc4ccccc4O3)C2)C(=O)N1Cc1ccccn1 [example 142, 1-((S)-1-(((S)-2,3-Dihydrobenzo[b][1,4]dioxin-2-yl)methyl)piperidin-3-yl)-3-(pyridin-2-ylmethyl)imidazolidine-2,4,5-trione]
15 | > 10000 | > 449 | 0.062 | 0.006 | O=C1c2ccccc2C(=O)N1[C@H]1CCCN(C[C@H]2COc3ccccc3O2)C1 [example 61, 2-((S)-1-(((S)-2,3-Dihydrobenzo[b][1,4]dioxin-2-yl)methyl)piperidin-3-yl)isoindoline-1,3-dione]
16 | > 10000 | > 449 | 43.5 | 4.38 | O=C1c2cccc(Cl)c2C(=O)N1[C@H]1CCCN(C[C@H]2COc3ccccc3O2)C1 [example 64, 4-Chloro-2-((S)-1-(((S)-2,3-dihydrobenzo[b][1,4]dioxin-2-yl)methyl)piperidin-3-yl)isoindoline-1,3-dione hydrochloride]
17 | > 10000 | > 449 | 10.5 | 1.05 | O=C1c2ncccc2CN1[C@H]1CCCN(C[C@H]2COc3ccccc3O2)C1 [example 77, 6-((S)-1-(((S)-2,3-Dihydrobenzo[b][1,4]dioxin-2-yl)methyl)piperidin-3-yl)-5H-pyrrolo[3,4-b]pyridin-7(6H)-one]
18 | > 10000 | > 449 | 0.175 | 0.015 | C[C@@H]1NC(=O)N([C@H]2CCCN(C[C@H]3COc4ccccc4O3)C2)C1=O [example 113, (S)-3-((S)-1-(((S)-2,3-Dihydrobenzo[b][1,4]dioxin-2-yl)methyl)-piperidin-3-yl)-5-methylimidazolidine-2,4-dione]
19 | 6160 | 276 | < 0.1 | < 0.01 | COCc1nc2ccccc2n1[C@H]1CCCN(C[C@H]2COc3ccccc3O2)C1 [example 151, 1-((S)-1-(((S)-2,3-Dihydrobenzo[b][1,4]dioxin-2-yl)methyl)piperidin-3-yl)-2-(methoxymethyl)-1H-benzo[d]imidazole]
20 | > 10000 | > 449 | < 0.01 | < 0.001 | COc1ccccc1C1=CC(=O)N([C@H]2CCCN(C[C@H]3COc4ccccc4O3)C2)C1 [example 43, 1-((S)-1-(((S)-2,3-Dihydrobenzo[b][1,4]dioxin-2-yl)methyl)piperidin-3-yl)-4-(2-methoxyphenyl)-1H-pyrrol-2(5H)-one formate]
21 | > 10000 | > 449 | 0.446 | 0.045 | CC(C)CN1C(=O)C(=O)N([C@H]2CCCN(C[C@H]3COc4ccccc4O3)C2)C1=O [example 141, 1-((S)-1-(((S)-2,3-Dihydrobenzo[b][1,4]dioxin-2-yl)methyl)piperidin-3-yl)-3-isobutylimidazolidine-2,4,5-trione]
22 | > 10000 | > 449 | 444 | 44.7 | CN(C)CCN1C(=O)C(=O)N([C@H]2CCCN(C[C@H]3COc4ccccc4O3)C2)C1=O [example 135, 1-((S)-1-(((S)-2,3-Dihydrobenzo[b][1,4]dioxin-2-yl)methyl)-piperidin-3-yl)-3-(2-(dimethylamino)ethyl)imidazolidine-2,4,5-trione]
23 | > 10000 | > 449 | > 10000 | > 1010 | O=C1C(c2ccccc2)CCN1[C@H]1CCCN(C[C@H]2COc3ccccc3O2)C1 (stereo partly drawn) [example 31, 1-((S)-1-(((S)-2,3-Dihydrobenzo[b][1,4]dioxin-2-yl)methyl)piperidin-3-yl)-3-phenylpyrrolidin-2-one]
